{
  "source": "patent US8318949B2",
  "about": "“Organic compounds” (Novartis AG, priority 2008, dated 2012)",
  "data": [
    {"smiles": "Cc1cc(CNC(=O)c2sc(N3C[C@@H](C)N(Cc4ccc(F)cc4)C3=O)nc2C)no1", "note": "[Example 2.11, (R)-2-(3-(4-fluorobenzyl)-4-methyl-2-oxoimidazolidin-1-yl)-4-methyl-N-((5-methylisoxazol-3-yl)methyl)thiazole-5-carboxamide]", "values": [
      {"measurement": "melting point", "value": "139 to 140", "unit": "°C"}
    ]},
    {"smiles": "Cc1nc(N2CCN(CC3CC3)C2=O)sc1C(=O)NCc1ncco1", "note": "[Example 12.15, 2-(3-(cyclopropylmethyl)-2-oxoimidazolidin-1-yl)-4-methyl-N-(oxazol-2-ylmethyl)thiazole-5-carboxamide]", "values": [
      {"measurement": "melting point", "value": "172 to 174", "unit": "°C"}
    ]},
    {"smiles": "Cc1nc(N2CCN(Cc3ccc(C(F)(F)F)cc3)C2=O)sc1C(N)=O", "note": "[Example 1.2, 4-methyl-2-{2-oxo-3-[4-(trifluoromethyl)benzyl]imidazolidin-1-yl}thiazole-5-carboxamide]", "values": [
      {"measurement": "melting point", "value": "216 to 217", "unit": "°C"}
    ]},
    {"smiles": "Cc1cc(CNC(=O)c2sc(N3CCN(Cc4ccc(F)cc4)C3=O)nc2C)[nH]n1", "note": "[Example 2.2, 2-(3-(4-fluorobenzyl)-2-oxoimidazolidin-1-yl)-4-methyl-N-((3-methyl-1H-pyrazol-5-yl)methyl)thiazole-5-carboxamide]", "values": [
      {"measurement": "melting point", "value": "225 to 226", "unit": "°C"}
    ]},
    {"smiles": "Cc1cc(-c2sc(N3CCN(Cc4cccc(C(F)(F)F)c4)C3=O)nc2C)n[nH]1", "note": "[Example 6.1, 1-(4-methyl-5-(5-methyl-1H-pyrazol-3-yl)thiazol-2-yl)-3-(3-(trifluoromethyl)benzyl)imidazolidin-2-one]", "values": [
      {"measurement": "melting point", "value": "163 to 164", "unit": "°C"}
    ]},
    {"smiles": "Cc1nc(N2C(=O)N(Cc3ccc(F)cc3)C[C@H]2C)sc1C(=O)NCc1ccccn1", "note": "[Example 2.18, (R)-2-(3-(4-fluorobenzyl)-5-methyl-2-oxoimidazolidin-1-yl)-4-methyl-N-(pyridin-2-ylmethyl)thiazole-5-carboxamide]", "values": [
      {"measurement": "melting point", "value": "55 to 57", "unit": "°C"}
    ]},
    {"smiles": "Cc1nc(N2CCN(Cc3ccc(F)cc3)C2=O)sc1C(=O)NCc1cocn1", "note": "[Example 12.16, 2-(3-(4-fluorobenzyl)-2-oxoimidazolidin-1-yl)-4-methyl-N-(oxazol-4-ylmethyl)thiazole-5-carboxamide]", "values": [
      {"measurement": "melting point", "value": "188 to 191", "unit": "°C"}
    ]},
    {"smiles": "Cc1nc(N2CCN(CC3CC3)C2=O)sc1C(=O)NCc1cccnn1", "note": "[Example 12.12, 2-(3-(cyclopropylmethyl)-2-oxoimidazolidin-1-yl)-4-methyl-N-(pyridazin-3-ylmethyl)thiazole-5-carboxamide]", "values": [
      {"measurement": "melting point", "value": "187 to 189", "unit": "°C"}
    ]},
    {"smiles": "Cc1nc(-n2cnn(Cc3ccc(F)cc3)c2=O)sc1C(=O)NCc1csc(C(C)C)n1", "note": "[Example 16.7]", "values": [
      {"measurement": "melting point", "value": "151 to 153", "unit": "°C"}
    ]},
    {"smiles": "Cc1nc(N2CCN(CCCC(F)(F)F)C2=O)sc1C(=O)NCc1ccncc1", "note": "[Example 12.7, 4-methyl-2-(2-oxo-3-(4,4,4-trifluorobutyl)imidazolidin-1-yl)-N-(pyridin-4-ylmethyl)thiazole-5-carboxamide]", "values": [
      {"measurement": "melting point", "value": "178 to 181", "unit": "°C"}
    ]},
    {"smiles": "C=CCCN1CCN(c2nc(C)c(C(=O)NCc3cccnc3)s2)C1=O", "note": "[Example 2.4, 2-(3-(but-3-enyl)-2-oxoimidazolidin-1-yl)-4-methyl-N-(pyridin-3-ylmethyl)thiazole-5-carboxamide]", "values": [
      {"measurement": "melting point", "value": "144 to 145", "unit": "°C"}
    ]},
    {"smiles": "Cc1nc(-n2cnn(CC3CC3)c2=O)sc1C(=O)NCc1cocn1", "note": "[Example 14.2, 2-(1-(cyclopropylmethyl)-5-oxo-1H-1,2,4-triazol-4(5H)-yl)-4-methyl-N-(oxazol-4-ylmethyl)thiazole-5-carboxamide]", "values": [
      {"measurement": "melting point", "value": "157 to 158", "unit": "°C"}
    ]},
    {"smiles": "Cc1nc(N2CCN(Cc3ccc(Cl)cc3)C2=O)sc1C(N)=O", "note": "[Example 1.13, 2-(3-(4-chlorobenzyl)-2-oxoimidazolidin-1-yl)-4-methylthiazole-5-carboxamide]", "values": [
      {"measurement": "melting point", "value": "> 200", "unit": "°C"}
    ]},
    {"smiles": "Cc1nc(N2C[C@@H](C)N(Cc3ccc(F)cc3)C2=O)sc1C(=O)NCc1ccc(F)c(F)c1", "note": "[Example 2.6, (R)-N-(3,4-difluorobenzyl)-2-(3-(4-fluorobenzyl)-4-methyl-2-oxoimidazolidin-1-yl)-4-methylthiazole-5-carboxamide]", "values": [
      {"measurement": "melting point", "value": "134 to 135", "unit": "°C"}
    ]},
    {"smiles": "Cc1nc(N2CCN(CC3CC3)C2=O)sc1C(N)=O", "note": "[Example 1.5, 2-(3-(cyclopropylmethyl)-2-oxoimidazolidin-1-yl)-4-methylthiazole-5-carboxamide]", "values": [
      {"measurement": "melting point", "value": "198 to 200", "unit": "°C"}
    ]},
    {"smiles": "Cc1nc(N2C(=O)N(Cc3ccc(F)cc3)C[C@@H]2C)sc1C(N)=O", "note": "[Example 1.12, (S)-2-(3-(4-fluorobenzyl)-5-methyl-2-oxoimidazolidin-1-yl)-4-methylthiazole-5-carboxamide]", "values": [
      {"measurement": "melting point", "value": "197 to 198", "unit": "°C"}
    ]},
    {"smiles": "Cc1nc(N2C[C@H](C)N(Cc3ccc(F)cc3)C2=O)sc1C(=O)NCc1ccc(F)c(F)c1", "note": "[Example 2.1, (S)-N-(3,4-difluorobenzyl)-2-(3-(4-fluorobenzyl)-4-methyl-2-oxoimidazolidin-1-yl)-4-methylthiazole-5-carboxamide]", "values": [
      {"measurement": "melting point", "value": "62 to 65", "unit": "°C"}
    ]},
    {"smiles": "Cc1nc(N2C[C@H](C)N(Cc3ccc(F)cc3)C2=O)sc1C(N)=O", "note": "[Example 1.3, (S)-2-(3-(4-fluorobenzyl)-4-methyl-2-oxoimidazolidin-1-yl)-4-methylthiazole-5-carboxamide]", "values": [
      {"measurement": "melting point", "value": "192 to 194", "unit": "°C"}
    ]},
    {"smiles": "Cc1nc(N2CCN(CC3CC3)C2=O)sc1C(=O)NCc1ccncn1", "note": "[Example 12.10, 2-(3-(cyclopropylmethyl)-2-oxoimidazolidin-1-yl)-4-methyl-N-(pyrimidin-4-ylmethyl)thiazole-5-carboxamide]", "values": [
      {"measurement": "melting point", "value": "188 to 191", "unit": "°C"}
    ]},
    {"smiles": "Cc1nc(N2CCN(Cc3ccc(OC(F)(F)F)cc3)C2=O)sc1C(N)=O", "note": "[Example 1.9, 4-methyl-2-(2-oxo-3-(4-(trifluoromethoxy)benzyl)imidazolidin-1-yl)thiazole-5-carboxamide]", "values": [
      {"measurement": "melting point", "value": "185 to 187", "unit": "°C"}
    ]},
    {"smiles": "COc1ccc(CN2CCN(c3nc(C)c(C(N)=O)s3)C2=O)cc1F", "note": "[Example 1.11, 2-(3-(3-fluoro-4-methoxybenzyl)-2-oxoimidazolidin-1-yl)-4-methylthiazole-5-carboxamide]", "values": [
      {"measurement": "melting point", "value": "182 to 184", "unit": "°C"}
    ]},
    {"smiles": "Cc1nc(N2CCN(CCCC(F)(F)F)C2=O)sc1-c1cc[nH]n1", "note": "[Example 17.1, 1-(4-methyl-5-(1H-pyrazol-3-yl)thiazol-2-yl)-3-(4,4,4-trifluorobutyl)imidazolidin-2-one]", "values": [
      {"measurement": "melting point", "value": "185 to 186", "unit": "°C"}
    ]},
    {"smiles": "Cc1nc(N2CCN(CCCC(F)(F)F)C2=O)sc1C(=O)NCc1cccnc1", "note": "[Example 12.3, 4-methyl-2-(2-oxo-3-(4,4,4-trifluorobutyl)imidazolidin-1-yl)-N-(pyridin-3-ylmethyl)thiazole-5-carboxamide]", "values": [
      {"measurement": "melting point", "value": "167 to 169", "unit": "°C"}
    ]},
    {"smiles": "Cc1nc(N2CCN(CC3CC3)C2=O)sc1C(=O)NCc1ncccn1", "note": "[Example 12.11, 2-(3-(cyclopropylmethyl)-2-oxoimidazolidin-1-yl)-4-methyl-N-(pyrimidin-2-ylmethyl)thiazole-5-carboxamide]", "values": [
      {"measurement": "melting point", "value": "218 to 220", "unit": "°C"}
    ]},
    {"smiles": "Cc1nc(-n2cnn(Cc3ccc(F)cc3)c2=O)sc1C(=O)NCc1cccc(N(C)C)c1", "note": "[Example 16.5, N-(3-(dimethylamino)benzyl)-2-(1-(4-fluorobenzyl)-5-oxo-1H-1,2,4-triazol-4(5H)-yl)-4-methylthiazole-5-carboxamide]", "values": [
      {"measurement": "melting point", "value": "149 to 151", "unit": "°C"}
    ]},
    {"smiles": "Cc1nc(N2CCN(Cc3ccccc3)C2=O)sc1C(N)=O", "note": "[Example 10, 2-(3-benzyl-2-oxoimidazolidin-1-yl)-4-methylthiazole-5-carboxamide]", "values": [
      {"measurement": "melting point", "value": "217 to 218", "unit": "°C"}
    ]},
    {"smiles": "Cc1nc(N2C[C@@H](C)N(Cc3cc(F)cc(F)c3)C2=O)sc1C(N)=O", "note": "[Example 1.14, (R)-2-(3-(3,5-difluorobenzyl)-4-methyl-2-oxoimidazolidin-1-yl)-4-methylthiazole-5-carboxamide]", "values": [
      {"measurement": "melting point", "value": "212 to 213", "unit": "°C"}
    ]},
    {"smiles": "Cc1cncc(CNC(=O)c2sc(N3CCN(CCCC(F)(F)F)C3=O)nc2C)n1", "note": "[Example 12.6, 4-methyl-N-((6-methylpyrazin-2-yl)methyl)-2-(2-oxo-3-(4,4,4-trifluorobutyl)imidazolidin-1-yl)thiazole-5-carboxamide]", "values": [
      {"measurement": "melting point", "value": 123, "unit": "°C"}
    ]},
    {"smiles": "Cc1ncc(CNC(=O)c2sc(N3CCN(CC4CC4)C3=O)nc2C)s1", "note": "[Example 12.14, 2-(3-(cyclopropylmethyl)-2-oxoimidazolidin-1-yl)-4-methyl-N-((2-methylthiazol-5-yl)methyl)thiazole-5-carboxamide]", "values": [
      {"measurement": "melting point", "value": "165 to 167", "unit": "°C"}
    ]},
    {"smiles": "Cc1nc(N2CCN(CC3CC3)C2=O)sc1C(=O)NCc1ccncc1", "note": "[Example 12.13, 2-(3-(cyclopropylmethyl)-2-oxoimidazolidin-1-yl)-4-methyl-N-(pyridin-4-ylmethyl)thiazole-5-carboxamide]", "values": [
      {"measurement": "melting point", "value": "> 200", "unit": "°C"}
    ]},
    {"smiles": "Cc1nc(-n2cnn(CC3CC3(F)F)c2=O)sc1C(N)=O", "note": "(stereo not shown) [Example 16.6, 2-(1-((2,2-difluorocyclopropyl)methyl)-5-oxo-1H-1,2,4-triazol-4(5H)-yl)-4-methylthiazole-5-carboxamide]", "values": [
      {"measurement": "melting point", "value": "273 to 275", "unit": "°C"}
    ]},
    {"smiles": "Cc1nc(N2CCN(CC3CC3)C2=O)sc1-c1cc[nH]n1", "note": "[Example 7, 1-(cyclopropylmethyl)-3-(4-methyl-5-(1H-pyrazol-3-yl)thiazol-2-yl)imidazolidin-2-one]", "values": [
      {"measurement": "melting point", "value": "169 to 171", "unit": "°C"}
    ]},
    {"smiles": "Cc1nc(N2CCN(CC3CC3(F)F)C2=O)sc1C(=O)NCc1ncco1", "note": "(stereo not shown) [Example 16.1, 2-(3-((2,2-difluorocyclopropyl)methyl)-2-oxoimidazolidin-1-yl)-4-methyl-N-(oxazol-2-ylmethyl)thiazole-5-carboxamide]", "values": [
      {"measurement": "melting point", "value": "156 to 158", "unit": "°C"}
    ]},
    {"smiles": "Cc1nc(N2CCN(Cc3ccc(F)cc3)C2=O)sc1-c1cc[nH]n1", "note": "[Example 9, 1-(4-fluorobenzyl)-3-(4-methyl-5-(1H-pyrazol-3-yl)thiazol-2-yl)imidazolidin-2-one]", "values": [
      {"measurement": "melting point", "value": "239 to 242", "unit": "°C"}
    ]},
    {"smiles": "Cc1nc(N2CCN(CC3CC3(F)F)C2=O)sc1C(=O)NCc1cccnc1", "note": "(stereo not shown) [Example 16, 2-(3-((2,2-difluorocyclopropyl)methyl)-2-oxoimidazolidin-1-yl)-4-methyl-N-(pyridin-3-ylmethyl)thiazole-5-carboxamide]", "values": [
      {"measurement": "melting point", "value": "169 to 171", "unit": "°C"}
    ]},
    {"smiles": "Cc1cc(-c2sc(N3CCN(CC4CC4)C3=O)nc2C)n[nH]1", "note": "[Example 6, 1-(cyclopropylmethyl)-3-(4-methyl-5-(5-methyl-1H-pyrazol-3-yl)thiazol-2-yl)imidazolidin-2-one]", "values": [
      {"measurement": "melting point", "value": "231 to 233", "unit": "°C"}
    ]},
    {"smiles": "Cc1cnc(CNC(=O)c2sc(N3C[C@@H](C)N(Cc4cc(F)cc(F)c4)C3=O)nc2C)cn1", "note": "[Example 2.13, (R)-2-(3-(3,5-difluorobenzyl)-4-methyl-2-oxoimidazolidin-1-yl)-4-methyl-N-((5-methylpyrazin-2-yl)methyl)thiazole-5-carboxamide]", "values": [
      {"measurement": "melting point", "value": "131 to 132", "unit": "°C"}
    ]}
  ]
}
